Results reported in patent publication US20250296938A1, “Compounds that Interact with the Ras Superfamily for the Treatment of Cancers, Inflammatory Diseases, Rasopathies, and Fibrotic Disease” (SHY Therapeutics, LLC, priority 2018, published 2025).
Read-outs that look alike come from different tables or passages of the source.

How the values were obtained:
Experiment in all cases: Ras GTP binding domain inhibition assay (Cy3-GTP/Cy5-GTP competition)
KRas G12C mutant = system: KRas G12C mutant; set-up: species or system human; settings: 20 μM; for KRas G12C mutant + SOS: % inh.: with SOS (Table 7A); for KRas G12C mutant: % inh.: without SOS (Table 7A)
Method in brief: (§1)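 Compounds tested at 20 μM or in serial dilution for IC50 against nickel-captured His-tagged GTPase, 3 hours at room temperature, with or without His-Sos GEF added for last hour. Fluorescent GTP then added at 100 nM for 45 minutes; wells washed, bound label measured by fluorescence.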

KRas Q61H mutant = system: KRas Q61H mutant; set-up: species or system human; settings: 20 μM; for KRas Q61H mutant + SOS: % inh.: with SOS (Table 7A); for KRas Q61H mutant: % inh.: without SOS (Table 7A)
Method in brief: as §1

KRas wild type = system: KRas wild type; set-up: species or system human; settings: 20 μM; for KRas wild type + SOS: % inh.: with SOS (Table 7A); for KRas wild type % inh.: without SOS (Table 7A)
Method in brief: as §1

KRas G12D mutant = molecular target: T1, KRas G12D mutant (Homo sapiens, UniProt P01116, G12D); settings: 20 μM
T1 construct: fused on or other part: His tag, used for capture on nickel-coated plates
Method in brief: as §1

[1] = with SOS (Table 7A), read-out: KRas G12D mutant + SOS: % inh.
[2] = without SOS (Table 7A), read-out: KRas G12D mutant: % inh.

Row | KRas G12C mutant + SOS: % inh. (KRas G12C mutant) | KRas G12C mutant: % inh. (KRas G12C mutant) | KRas Q61H mutant + SOS: % inh. (KRas Q61H mutant) | KRas Q61H mutant: % inh. (KRas Q61H mutant) | KRas wild type + SOS: % inh. (KRas wild type) | KRas wild type % inh. (KRas wild type) | inhibition at 20 µM (KRas G12D mutant; [1]) [%] | inhibition at 20 µM (KRas G12D mutant; [2]) [%] | SMILES
1 | C (51-75% inhibition) | B (26-50% inhibition) | C (51-75% inhibition) | B (26-50% inhibition) | C (51-75% inhibition) | B (26-50% inhibition) | 51 to 75 | 26 to 50 | COC1CCC(Nc2nc(-c3nccn3C)nc3sc(-c4cccc(O)c4F)c(-c4ccccc4)c23)C1 (stereo not shown) [drawing 885]
2 | A (1-25% inhibition) | B (26-50% inhibition) | B (26-50% inhibition) | A (1-25% inhibition) | A (1-25% inhibition) | B (26-50% inhibition) | 1 to 25 | 1 to 25 | COc1c(F)cccc1-c1sc2nc(-c3nccn3C)nc(NC3CCC(OC)C3)c2c1-c1ccccc1 (stereo not shown) [drawing 886]
3 | D (76-100% inhibition) | B (26-50% inhibition) | D (76-100% inhibition) | C (51-75% inhibition) | D (76-100% inhibition) | B (26-50% inhibition) | 26 to 50 | 26 to 50 | COC1CCC(Nc2nc(-c3nccn3C)nc3sc(-c4cccc5[nH]ncc45)c(-c4ccccc4)c23)C1 (stereo not shown) [drawing 888]

Second part, the molecule before the results:

Row | SMILES | KRas G12C mutant + SOS: % inh. (KRas G12C mutant) | KRas G12C mutant: % inh. (KRas G12C mutant) | KRas Q61H mutant + SOS: % inh. (KRas Q61H mutant) | KRas Q61H mutant: % inh. (KRas Q61H mutant) | KRas wild type + SOS: % inh. (KRas wild type) | KRas wild type % inh. (KRas wild type) | inhibition at 20 µM (KRas G12D mutant; [1]) [%] | inhibition at 20 µM (KRas G12D mutant; [2]) [%]
4 | COc1c(O)nc(-c2ccccn2)nc1Oc1ccc(C(=O)N(C)C)cc1 [drawing 879] | A (1-25% inhibition) | B (26-50% inhibition) | B (26-50% inhibition) | B (26-50% inhibition) | A (1-25% inhibition) | B (26-50% inhibition) | 26 to 50 | 51 to 75
5 | COc1c(O)nc(-c2ccccn2)nc1Nc1ccccc1 [drawing 880] | B (26-50% inhibition) | C (51-75% inhibition) | C (51-75% inhibition) | C (51-75% inhibition) | B (26-50% inhibition) | C (51-75% inhibition) | 26 to 50 | 26 to 50
6 | CCn1cc(Nc2nc(-c3ccccn3)nc(O)c2OC)cn1 [drawing 881] | B (26-50% inhibition) | C (51-75% inhibition) | B (26-50% inhibition) | A (1-25% inhibition) | B (26-50% inhibition) | C (51-75% inhibition) | 26 to 50 | 26 to 50
7 | CCOc1cccc(Nc2nc(-c3ccccn3)nc(O)c2OC)c1 [drawing 882] | C (51-75% inhibition) | C (51-75% inhibition) | C (51-75% inhibition) | C (51-75% inhibition) | B (26-50% inhibition) | C (51-75% inhibition) | 26 to 50 | 51 to 75
8 | COc1cccc(-c2sc3nc(-c4nccn4C)nc(NC4CCC(OC)C4)c3c2-c2ccccc2)c1F (stereo not shown) [drawing 883] | D (76-100% inhibition) | B (26-50% inhibition) | D (76-100% inhibition) | C (51-75% inhibition) | D (76-100% inhibition) | C (51-75% inhibition) | 51 to 75 | 26 to 50
